Laboratory results as given in paper PMC11277489, “Novel Piperazine Derivatives of Vindoline as Anticancer Agents” (International Journal of Molecular Sciences, 2024).
Like-named read-outs stand apart in the source and are kept apart here.

Tests used:
K-562 = assay: NCI60 five-dose screen, Leukemia; format: cell-based; conditions: Homo sapiens, K562; K-562, Leukemia; five-dose screen; read-out: GI50
UACC-62 = assay: NCI60 one-dose screen (10 μM), Melanoma; format: cell-based; conditions: Homo sapiens
NCI/ADR-RES [1] = assay: NCI60 five-dose screen, Ovarian Cancer; format: cell-based; conditions: Homo sapiens, Ovarian Cancer, five-dose screen, read-out: GI50
HS 578T = assay: NCI60 one-dose screen (10 μM), Breast Cancer; format: cell-based; conditions: Homo sapiens, read-out: Growth percent rate
ACHN = assay: NCI60 five-dose screen, Renal Cancer; format: cell-based; conditions: Homo sapiens, Renal Cancer, five-dose screen, read-out: GI50
NCI-H226 [2] = assay: NCI60 one-dose screen (10 μM), Non-small Cell Lung Cancer; format: cell-based; conditions: Homo sapiens
U251 = assay: NCI60 five-dose screen, CNS Cancer; format: cell-based; conditions: Homo sapiens, U-251; U251, CNS Cancer; five-dose screen; read-out: GI50
HCT-15 = assay: NCI60 five-dose screen, Colon Cancer; format: cell-based; conditions: Homo sapiens; HCT-15, Colon Cancer; five-dose screen; read-out: GI50
A549/ATCC = assay: NCI60 five-dose screen, Non-small Cell Lung Cancer; format: cell-based; conditions: Homo sapiens; A549/ATCC, Non-small Cell Lung Cancer; five-dose screen; read-out: GI50
T-47D [3] = assay: NCI60 five-dose screen, Breast Cancer; format: cell-based; conditions: Homo sapiens, T47D; T-47D, Breast Cancer; five-dose screen; read-out: GI50
SR = assay: NCI60 one-dose screen (10 μM), Leukemia; format: cell-based; conditions: Homo sapiens, read-out: Growth percent rate
SN12C = assay: NCI60 one-dose screen (10 μM), Renal Cancer; format: cell-based; conditions: Homo sapiens, read-out: Growth percent rate
OVCAR-3 [4] = assay: NCI60 one-dose screen (10 μM), Ovarian Cancer; format: cell-based; conditions: Homo sapiens
UACC-257 = assay: NCI60 five-dose screen, Melanoma; format: cell-based; conditions: Homo sapiens; UACC-257, Melanoma; five-dose screen; read-out: GI50
SW-620 = assay: NCI60 five-dose screen, Colon Cancer; format: cell-based; conditions: Homo sapiens; SW-620, Colon Cancer; five-dose screen; read-out: GI50
T-47D [5] = assay: NCI60 one-dose screen (10 μM), Breast Cancer; format: cell-based; conditions: Homo sapiens, T47D, read-out: Growth percent rate
A498 = assay: NCI60 five-dose screen, Renal Cancer; format: cell-based; conditions: Homo sapiens; A498, Renal Cancer; five-dose screen; read-out: GI50
SNB-75 = assay: NCI60 five-dose screen, CNS Cancer; format: cell-based; conditions: Homo sapiens; SNB-75, CNS Cancer; five-dose screen; read-out: GI50
LOX IMVI = assay: NCI60 five-dose screen, Melanoma; format: cell-based; conditions: Homo sapiens, Melanoma, five-dose screen, read-out: GI50
HL-60(TB) = assay: NCI60 five-dose screen, Leukemia; format: cell-based; conditions: Homo sapiens; HL-60(TB), Leukemia; five-dose screen; read-out: GI50
OVCAR-3 [6] = assay: NCI60 five-dose screen, Ovarian Cancer; format: cell-based; conditions: Homo sapiens; OVCAR-3, Ovarian Cancer; five-dose screen; read-out: GI50
NCI-H226 [7] = assay: NCI60 five-dose screen, Non-small Cell Lung Cancer; format: cell-based; conditions: Homo sapiens; NCI-H226, Non-small Cell Lung Cancer; five-dose screen; read-out: GI50
UO-31 = assay: NCI60 one-dose screen (10 μM), Renal Cancer; format: cell-based; conditions: Homo sapiens
EKVX = assay: NCI60 one-dose screen (10 μM), Non-small Cell Lung Cancer; format: cell-based; conditions: Homo sapiens, read-out: Growth percent rate
SK-MEL-5 = assay: NCI60 five-dose screen, Melanoma; format: cell-based; conditions: Homo sapiens; SK-MEL-5, Melanoma; five-dose screen; read-out: GI50
HCT-116 = assay: NCI60 one-dose screen (10 μM), Colon Cancer; format: cell-based; conditions: Homo sapiens
NCI-H522 [8] = assay: NCI60 one-dose screen (10 μM), Non-small Cell Lung Cancer; format: cell-based; conditions: Homo sapiens
NCI/ADR-RES [9] = assay: NCI60 one-dose screen (10 μM), Ovarian Cancer; format: cell-based; conditions: Homo sapiens, read-out: Growth percent rate
OVCAR-4 = assay: NCI60 five-dose screen, Ovarian Cancer; format: cell-based; conditions: Homo sapiens; OVCAR-4, Ovarian Cancer; five-dose screen; read-out: GI50
BT-549 [10] = assay: NCI60 five-dose screen, Breast Cancer; format: cell-based; conditions: Homo sapiens; BT-549, Breast Cancer; five-dose screen; read-out: GI50
NCI-H522 [11] = assay: NCI60 five-dose screen, Non-small Cell Lung Cancer; format: cell-based; conditions: Homo sapiens; NCI-H522, Non-small Cell Lung Cancer; five-dose screen; read-out: GI50
NCI-H460 = assay: NCI60 five-dose screen, Non-small Cell Lung Cancer; format: cell-based; conditions: Homo sapiens; NCI-H460, Non-small Cell Lung Cancer; five-dose screen; read-out: GI50
HCC-2998 = assay: NCI60 one-dose screen (10 μM), Colon Cancer; format: cell-based; conditions: Homo sapiens
SK-MEL-2 = assay: NCI60 five-dose screen, Melanoma; format: cell-based; conditions: Homo sapiens; SK-MEL-2, Melanoma; five-dose screen; read-out: GI50
HOP-62 = assay: NCI60 five-dose screen, Non-small Cell Lung Cancer; format: cell-based; conditions: Homo sapiens; HOP-62, Non-small Cell Lung Cancer; five-dose screen; read-out: GI50
BT-549 [12] = assay: NCI60 one-dose screen (10 μM), Breast Cancer; format: cell-based; conditions: Homo sapiens
PC-3 [13] = assay: NCI60 five-dose screen, Prostate Cancer; format: cell-based; conditions: Homo sapiens; PC-3, Prostate Cancer; five-dose screen; read-out: GI50
OVCAR-5 = assay: NCI60 one-dose screen (10 μM), Ovarian Cancer; format: cell-based; conditions: Homo sapiens
MDA-MB-231/ATCC = assay: NCI60 one-dose screen (10 μM), Breast Cancer; format: cell-based, human; conditions: Homo sapiens
SF-539 = assay: NCI60 five-dose screen, CNS Cancer; format: cell-based; conditions: Homo sapiens; SF-539, CNS Cancer; five-dose screen; read-out: GI50
PC-3 [14] = assay: NCI60 one-dose screen (10 μM), Prostate Cancer; format: cell-based; conditions: Homo sapiens
SK-OV-3 = assay: NCI60 one-dose screen (10 μM), Ovarian Cancer; format: cell-based; conditions: Homo sapiens
NCI-H23 = assay: NCI60 five-dose screen, Non-small Cell Lung Cancer; format: cell-based; conditions: Homo sapiens; NCI-H23, Non-small Cell Lung Cancer; five-dose screen; read-out: GI50
SF-268 = assay: NCI60 five-dose screen, CNS Cancer; format: cell-based; conditions: Homo sapiens; SF-268, CNS Cancer; five-dose screen; read-out: GI50
MDA-MB-468 = assay: NCI60 one-dose screen (10 μM), Breast Cancer; format: cell-based; conditions: Homo sapiens, MDA-MB-468, read-out: Growth percent rate
HOP-92 = assay: NCI60 one-dose screen (10 μM), Non-small Cell Lung Cancer; format: cell-based; conditions: Homo sapiens, HOP-92, read-out: Growth percent rate

Q: Which results are given for CC[C@]12C=CCN3CC[C@@]4(c5ccc(OC)cc5N(C)[C@H]4[C@@](O)(C(=O)OC)[C@@H]1OC(=O)CCCN1CCN(Cc4ccc(F)cc4)CC1)[C@@H]32 [Compound 24]?
A: GI50 (K-562): 2.4 µM; activity at 10 µM (UACC-62; 10 μM, UACC-62, Melanoma, read-out: Growth percent rate): 34.7%; GI50 (NCI/ADR-RES [1]): 11.8 µM; activity at 10 µM (HS 578T; 10 μM, HS 578T, Breast Cancer): 56.4%; GI50 (ACHN): 5.89 µM; activity at 10 µM (NCI-H226 [2]; 10 μM, NCI-H226, Non-small Cell Lung Cancer, read-out: Growth percent rate): 50.2%; GI50 (U251): 7.59 µM; GI50 (HCT-15): 5.13 µM; GI50 (A549/ATCC): 10.2 µM; GI50 (T-47D [3]): 5.62 µM; activity at 10 µM (SR; 10 μM, Leukemia): 4.82%; activity at 10 µM (SN12C; 10 μM, Renal Cancer): 43.9%; activity at 10 µM (OVCAR-3 [4]; 10 μM, OVCAR-3, Ovarian Cancer, read-out: Growth percent rate): 50.6%; GI50 (UACC-257): 2 µM; GI50 (SW-620): 13.5 µM; activity at 10 µM (T-47D [5]; 10 μM, T-47D, Breast Cancer): 28.8%; GI50 (A498): 12.9 µM; GI50 (SNB-75): 1.12 µM; GI50 (LOX IMVI): 5.01 µM; GI50 (HL-60(TB)): 3.31 µM; GI50 (OVCAR-3 [6]): 10.7 µM; GI50 (NCI-H226 [7]): 10.5 µM; activity at 10 µM (UO-31; 10 μM, UO-31, Renal Cancer, read-out: Growth percent rate): 20.7%; activity at 10 µM (EKVX; 10 μM, Non-small Cell Lung Cancer): 40.3%; GI50 (SK-MEL-5): 1.66 µM; activity at 10 µM (HCT-116; 10 μM, HCT-116, Colon Cancer, read-out: Growth percent rate): 24.1%; activity at 10 µM (NCI-H522 [8]; 10 μM, NCI-H522, Non-small Cell Lung Cancer, read-out: Growth percent rate): 27.3%; activity at 10 µM (NCI/ADR-RES [9]; 10 μM, Ovarian Cancer): 42%; GI50 (OVCAR-4): 5.37 µM; GI50 (BT-549 [10]): 7.24 µM; GI50 (NCI-H522 [11]): 13.8 µM; GI50 (NCI-H460): 8.51 µM; activity at 10 µM (HCC-2998; 10 μM, HCC-2998, Colon Cancer, read-out: Growth percent rate): -62.4%; GI50 (SK-MEL-2): 15.1 µM; GI50 (HOP-62): 10.2 µM; activity at 10 µM (BT-549 [12]; 10 μM, BT-549, Breast Cancer, read-out: Growth percent rate): 16.3%; GI50 (PC-3 [13]): 4.17 µM; activity at 10 µM (OVCAR-5; 10 μM, OVCAR-5, Ovarian Cancer, read-out: Growth percent rate): 81.2%; activity at 10 µM (MDA-MB-231/ATCC; 10 μM, MDA-MB-231/ATCC, Breast Cancer, read-out: Growth percent rate): 51.5%; GI50 (SF-539): 10.5 µM; activity at 10 µM (PC-3 [14]; 10 μM, PC-3, Prostate Cancer, read-out: Growth percent rate): 12.9%; activity at 10 µM (SK-OV-3; 10 μM, SK-OV-3, Ovarian Cancer, read-out: Growth percent rate): 70%; GI50 (NCI-H23): 13.2 µM; GI50 (SF-268): 5.25 µM

Q: What does the source list for CC[C@]12C=CCN3CC[C@@]4(c5ccc(OC)cc5N(C)[C@H]4[C@@](O)(C(=O)OC)[C@@H]1OC(=O)CCC(=O)N1CCN(C(=O)c4ccco4)CC1)[C@@H]32 [Compound 32]?
A: activity at 10 µM (UACC-62; UACC-62, read-out: Growth percent rate): 59.5%; activity at 10 µM (HS 578T; Hs-578T): 103%; activity at 10 µM (MDA-MB-468): 78%; activity at 10 µM (NCI-H226 [2]; NCI-H226, read-out: Growth percent rate): 115%; activity at 10 µM (SR): 117%; activity at 10 µM (SN12C): 94.4%; activity at 10 µM (OVCAR-3 [4]; OVCAR-3, read-out: Growth percent rate): 99.8%; activity at 10 µM (T-47D [5]): 92.5%; activity at 10 µM (HOP-92): 92.4%; activity at 10 µM (UO-31; UO-31, read-out: Growth percent rate): 98.8%; activity at 10 µM (EKVX): 99.4%; activity at 10 µM (HCT-116; HCT-116, read-out: Growth percent rate): 119%; activity at 10 µM (NCI-H522 [8]; NCI-H522, read-out: Growth percent rate): 81.4%; activity at 10 µM (NCI/ADR-RES [9]): 106%; activity at 10 µM (HCC-2998; HCC 2998, read-out: Growth percent rate): 113%; activity at 10 µM (BT-549 [12]; BT-549, read-out: Growth percent rate): 122%; activity at 10 µM (OVCAR-5; OVCAR-5, read-out: Growth percent rate): 105%; activity at 10 µM (MDA-MB-231/ATCC; MDA-MB-231, read-out: Growth percent rate): 91.1%; activity at 10 µM (PC-3 [14]; PC-3, read-out: Growth percent rate): 90.6%; activity at 10 µM (SK-OV-3; SK-OV-3, read-out: Growth percent rate): 111%
